Reference: patent US20240293361A1, “Use of Statins to Treat or Prevent Drug-Induced Hearing Loss” (The United States of America, as represented by the …, priority 2020, published 2024)
Values joined by “and” are separate entries in the source; they are usually repeats but may differ in a detail not shown here. Equal entries are not always repeated. “Also recorded” adds a separate entry of the source.

What was measured:
[1] = system: patients treated with atorvastatin; conditions: cited from earlier work
[2] = system: cisplatin-induced hearing loss in patients with head and neck cancer
Description: (§1) The primary outcome measure was the difference in incidence of a change in hearing between the baseline hearing test and the post-treatment hearing test, per ear, as defined by established ototoxicity grading scales. These scales report subjects who transition from normal hearing to hearing loss as well as those who transition from some hearing loss to more hearing loss. The criteria of two different grading scales was applied to the dataset (Table 4). The NCI CTCAEv5.0(34) classifies adverse changes in hearing based on auditory threshold shifts across a 1-8 KHz frequency range. TUNE ototoxicity grading criteria (Theunissen et al., 2014), which incorporate extended high frequency (EHF) data was also applied (see Table 5, FIG. 5).
Changes in hearing were primarily defined using CTCAEv5.0 criteria (Theunissen et al., 2014). However, cisplatin-induced ototoxicity is characterized initially as a high frequency (above 8 kHz) hearing loss that can spread to include lower frequencies (Brock et al., 1991). Therefore, the TUNE grading scale (Theunissen et al., 2014) was applied, which reports incidence and severity of hearing loss based on shifts in auditory thresholds across two frequency ranges: 1-4 kHz and 8-12.5 kHz (Table 4). The higher-frequency range of the TUNE scale was modified to include 6, 8 and 12.5 kHz due to insufficient data at 10 kHz in the dataset. Because many of the subjects had some hearing loss at baseline, the TUNE criteria was further modified so that Grades 3 and 4 utilized threshold shift data instead of absolute thresholds. A TUNE Grade 3 was redefined for this study as a ≥35 dB PTA threshold shift from the baseline to the post-treatment audiogram, and similarly Grade 4 was redefined as a ≥50 dB PTA threshold shift.
(§2) Changes in hearing, defined by TUNE criteria, were analyzed using categorical incidence (per ear) data. The incidence and severity distribution of a clinically meaningful hearing change, per ear, relative to statin use was analyzed using chi-square analyses (SAS PROC FREQ procedure). […] A logistic regression analysis (SAS PROC LOGISTIC procedure) with calculation of odds ratios and 95% confidence intervals was performed to identify associations between TUNE-defined changes in hearing and statin use after adjustment for significant covariates.

[3] = system: patients with HNSCC; test: 3-year overall and disease-free survival (Kaplan-Meier, log-rank); type: in vivo, human; conditions: URMC data n=175; log-rank (Mantel-Cox)
Method: Overall survival and disease-free survival were calculated as Kaplan-Meier curves using Prism v8 software on all available data from URMC at up to 3 years post treatment (N=175). Survival curves were compared using the log-rank (Mantel-Cox) test. Cochlear radiation dose data presented in FIG. 6 were analyzed using Pearson R and Spearman R correlation analysis within Prism v8.
Overall survival at 3 years was approximately 80% (FIG. 4). An exact median survival time could not be calculated due to the number of patients censored/lost to follow-up.

[4] = system: spiral ganglion neurons (SGN); conditions: mouse model of noise-induced hearing loss; cited from earlier work
[5] = system: cisplatin-induced hearing loss in patients with head and neck cancer; test: Clinical hearing status (PTA of 1, 2 and 4 kHz) at follow-up after cisplatin therapy; type: in vivo, human
[6] = system: cisplatin-induced hearing loss in patients with head and neck cancer; remark: listed apart in the source
Description: as §1
as §2, with “The primary outcome measure was based on changes” for “Changes”, “hearing as” for “hearing,”, “CTCAEv5.0 scale criteria (see Table 4) and” for “TUNE criteria,”, “CTCAE-defined” for “TUNE-defined”

[7] = system: cisplatin-induced hearing loss in patients with head and neck cancer; conditions: in vivo
[8] = Schachter et al., 2005; cited from earlier work
[9] = cited from earlier work; for hepatoselectivity: compared with lipophilic agents
[10] = system: cisplatin-induced hearing loss in mice; conditions: cyclic administration of cisplatin; ABR testing; cited from earlier work
[11] = system: heme oxygenase-1 (Hmox-1); conditions: mice; cited from earlier work
[12] = system: cytochrome P(450) enzymes; conditions: Schachter et al., 2005; cited from earlier work
[13] = system: low-density lipoprotein cholesterol; conditions: clinical studies, comparison among statins; cited from earlier work
[14] = controlled for cumulative cisplatin dose and baseline hearing
[15] = package insert, rate greater than placebo

CC(C)c1c(C(=O)Nc2ccccc2)c(-c2ccccc2)c(-c2ccc(F)cc2)n1CC[C@@H](O)C[C@@H](O)CC(=O)[O-].CC(C)c1c(C(=O)Nc2ccccc2)c(-c2ccccc2)c(-c2ccc(F)cc2)n1CC[C@@H](O)C[C@@H](O)CC(=O)[O-].[Ca+2] [atorvastatin calcium]
incidence of persistent serum transaminase elevations, 10 mg ([1]; human, in vivo): 0.2% | incidence of persistent serum transaminase elevations, 20 mg ([1]; human, in vivo): 0.2% | incidence of persistent serum transaminase elevations, 40 mg ([1]; human, in vivo): 0.6% | incidence of persistent serum transaminase elevations, 80 mg ([1]; human, in vivo): 2.3% | patients with persistent elevations (>3 times ULN on 2 or more occasions) in serum transaminases ([1]; human, in vivo): 0.7%

CC(C)c1c(C(=O)Nc2ccccc2)c(-c2ccccc2)c(-c2ccc(F)cc2)n1CC[C@@H](O)C[C@@H](O)CC(=O)O [atorvastatin]
less likely to acquire a TUNE-defined cisplatin-induced hearing loss than a non-statin user [2, 14]: 56% | incidence of TUNE grade 2 or higher change in hearing ([2]; in vivo): 14.4% | incidence of TUNE Grade 1 or higher hearing loss ([2]; percent of ears): 34% | 3-year disease-free survival compared with non-statin users [3]: no significant differences | 3-year overall survival compared with non-statin users [3]: did not have a significant effect on patient survival; also recorded: no significant differences | safety and tolerability of the 20 mg dose ([1]; 20 mg once daily, adults, literature, listed as Atorvastatin): very low incidence of adverse effects | Food and Drug Administration pregnancy classification ([1]; human, in vivo): Category X | alanine aminotransferase increase leading to treatment discontinuation [1, 15]: 0.4% | diarrhea leading to treatment discontinuation [1, 15]: 0.5% | hepatic enzyme increase leading to treatment discontinuation [1, 15]: 0.4% | myalgia leading to treatment discontinuation [1, 15]: 0.7% | nausea leading to treatment discontinuation [1, 15]: 0.4% | elongation of SGN processes [4]: promoted the elongation of SGN processes | hearing status at follow-up: Mild (PTA >20, <40), number of ears ([5]; post-cisplatin therapy): 49 No. Ears | hearing status at follow-up: Mild (PTA >20, <40), percent of ears ([5]; post-cisplatin therapy): (50.52) % | hearing status at follow-up: Moderate (PTA ≥40, ≤70), number of ears ([5]; post-cisplatin therapy): 21 No. Ears | hearing status at follow-up: Moderate (PTA ≥40, ≤70), percent of ears ([5]; post-cisplatin therapy): (21.65) % | hearing status at follow-up: Normal (PTA ≤20), number of ears ([5]; post-cisplatin therapy): 26 No. Ears | hearing status at follow-up: Normal (PTA ≤20), percent of ears ([5]; post-cisplatin therapy): (26.80) % | hearing status at follow-up: Profound (PTA ≥95), number of ears ([5]; post-cisplatin therapy): 3 No. Ears | hearing status at follow-up: Profound (PTA ≥95), percent of ears ([5]; post-cisplatin therapy): (3.00) % | hearing status at follow-up: Severe (PTA >70, <95), number of ears ([5]; post-cisplatin therapy): 1 No. Ears | hearing status at follow-up: Severe (PTA >70, <95), percent of ears ([5]; post-cisplatin therapy): (1.03) % | hearing loss, CTCAEv5.0 Grade ≥2 criteria, retrospective data used for power analysis ([6]; atorvastatin (20 mg) group as worded): ~16.7% | less likely to acquire a CTCAE-defined cisplatin-induced hearing loss than a non-statin user [6, 14]: 53% | less likely to develop a cisplatin-related hearing loss, once daily atorvastatin vs not on atorvastatin ([6]; observational data): 45% | OR for cisplatin-related hearing loss, once daily atorvastatin vs not on atorvastatin ([6]; observational data, 95% CI: 0.327-0.942): 0.55 | incidence of a CTCAEv5.0-grade hearing loss, patients ([6]; per patient, in at least one ear): 46% | incidence of CTCAE grade ≥2 hearing change ([6]; percentage of ears): 9.7% | incidence of CTCAE Grade 1 or higher hearing loss ([6]; percentage of ears, full cohort): 31.2% and 31% | incidence of CTCAE-defined hearing loss, chemoradiation therapy ([6]; subgroup, % of ears): 31.2% | incidence of CTCAE-defined hearing loss, higher cumulative cisplatin doses (>200 mg/m^2) ([6]; subgroup, % of ears): 31.7% | incidence of CTCAE-defined hearing loss, males ([6]; subgroup, % of ears): 30.4% | incidence of CTCAE-defined hearing loss, mild hearing loss at baseline ([6]; subgroup, % of ears): 26.8%

N.N.[Cl][Pt][Cl] [cisplatin]
individuals with clinically meaningful hearing loss after cisplatin therapy, TUNE criteria ([2]; in vivo): up to 53% | high-frequency threshold shift after cisplatin therapy [7]: 13.7 dB

CC(C)n1c(/C=C/C(O)CC(O)CC(=O)O)c(-c2ccc(F)cc2)c2ccccc21 (stereo not drawn) [fluvastatin]
lipophilicity [8]: relatively lipophilic | elimination half-life ([9]; Schachter et al., 2005): 1 h

CC[C@H](C)C(=O)O[C@H]1C[C@@H](C)C=C2C=C[C@H](C)[C@H](CC[C@@H]3C[C@@H](O)CC(=O)O3)[C@H]21 [lovastatin]
effect on cisplatin-induced hearing loss / ototoxicity in mice [10]: reduces cisplatin-induced hearing loss; also recorded: reduced cisplatin ototoxicity | Hmox-1 mRNA [11]: induced Hmox-1 mRNA | elongation of SGN processes [4]: promoted the elongation of SGN processes | hearing status at follow-up: Mild (PTA >20, <40), number of ears ([5]; post-cisplatin therapy): 4 No. Ears | hearing status at follow-up: Mild (PTA >20, <40), percent of ears ([5]; post-cisplatin therapy): (100.00) % | hearing status at follow-up: Moderate (PTA ≥40, ≤70), number of ears ([5]; post-cisplatin therapy): 0 No. Ears | hearing status at follow-up: Normal (PTA ≤20), number of ears ([5]; post-cisplatin therapy): 0 No. Ears | hearing status at follow-up: Profound (PTA ≥95), number of ears ([5]; post-cisplatin therapy): 0 No. Ears | hearing status at follow-up: Severe (PTA >70, <95), number of ears ([5]; post-cisplatin therapy): 0 No. Ears | lipophilicity [8]: relatively lipophilic

O=C(O)C[C@H](O)C[C@H](O)/C=C/c1c(C2CC2)nc2ccccc2c1-c1ccc(F)cc1 [pitavastatin]
metabolism by the cytochrome P(450) system [12]: limited metabolism | change of hearing status over cisplatin therapy, in words ([5]; n=2 subjects): started and ended therapy with a bilateral mild hearing loss | hearing status at follow-up: Mild (PTA >20, <40), number of ears ([5]; post-cisplatin therapy): 4 No. Ears | hearing status at follow-up: Mild (PTA >20, <40), percent of ears ([5]; post-cisplatin therapy): (100.00) % | hearing status at follow-up: Moderate (PTA ≥40, ≤70), number of ears ([5]; post-cisplatin therapy): 0 No. Ears | hearing status at follow-up: Normal (PTA ≤20), number of ears ([5]; post-cisplatin therapy): 0 No. Ears | hearing status at follow-up: Profound (PTA ≥95), number of ears ([5]; post-cisplatin therapy): 0 No. Ears | hearing status at follow-up: Severe (PTA >70, <95), number of ears ([5]; post-cisplatin therapy): 0 No. Ears | lipophilicity [8]: relatively lipophilic

CC[C@H](C)C(=O)O[C@H]1C[C@H](O)C=C2C=C[C@H](C)[C@H](CC[C@@H](O)C[C@@H](O)CC(=O)O)[C@H]21 [pravastatin]
metabolism by the cytochrome P(450) system [12]: not significantly metabolized | hearing status at follow-up: Mild (PTA >20, <40), number of ears ([5]; post-cisplatin therapy): 8 No. Ears | hearing status at follow-up: Mild (PTA >20, <40), percent of ears ([5]; post-cisplatin therapy): (33.33) % | hearing status at follow-up: Moderate (PTA ≥40, ≤70), number of ears ([5]; post-cisplatin therapy): 6 No. Ears | hearing status at follow-up: Moderate (PTA ≥40, ≤70), percent of ears ([5]; post-cisplatin therapy): (25.00) % | hearing status at follow-up: Normal (PTA ≤20), number of ears ([5]; post-cisplatin therapy): 9 No. Ears | hearing status at follow-up: Normal (PTA ≤20), percent of ears ([5]; post-cisplatin therapy): (37.50) % | hearing status at follow-up: Profound (PTA ≥95), number of ears ([5]; post-cisplatin therapy): 0 No. Ears | hearing status at follow-up: Severe (PTA >70, <95), number of ears ([5]; post-cisplatin therapy): 1 No. Ears | hearing status at follow-up: Severe (PTA >70, <95), percent of ears ([5]; post-cisplatin therapy): (4.17) % | lipophilicity [8]: relatively hydrophilic | hepatoselectivity ([9]; Schachter et al., 2005): greater hepatoselectivity

CC(C)c1nc(N(C)S(C)(=O)=O)nc(-c2ccc(F)cc2)c1/C=C/[C@@H](O)C[C@@H](O)CC(=O)O [rosuvastatin]
effectiveness for reducing low-density lipoprotein cholesterol [13]: most effective | metabolism by the cytochrome P(450) system [12]: not significantly metabolized | hearing status at follow-up: Mild (PTA >20, <40), number of ears ([5]; post-cisplatin therapy): 14 No. Ears | hearing status at follow-up: Mild (PTA >20, <40), percent of ears ([5]; post-cisplatin therapy): (63.64) % | hearing status at follow-up: Moderate (PTA ≥40, ≤70), number of ears ([5]; post-cisplatin therapy): 6 No. Ears | hearing status at follow-up: Moderate (PTA ≥40, ≤70), percent of ears ([5]; post-cisplatin therapy): (27.27) % | hearing status at follow-up: Normal (PTA ≤20), number of ears ([5]; post-cisplatin therapy): 2 No. Ears | hearing status at follow-up: Normal (PTA ≤20), percent of ears ([5]; post-cisplatin therapy): (9.09) % | hearing status at follow-up: Profound (PTA ≥95), number of ears ([5]; post-cisplatin therapy): 0 No. Ears | hearing status at follow-up: Severe (PTA >70, <95), number of ears ([5]; post-cisplatin therapy): 0 No. Ears | lipophilicity [8]: relatively hydrophilic | hepatoselectivity ([9]; Schachter et al., 2005): greater hepatoselectivity

CCC(C)(C)C(=O)O[C@H]1C[C@@H](C)C=C2C=C[C@H](C)[C@H](CC[C@@H]3C[C@@H](O)CC(=O)O3)[C@H]21 [simvastatin]
half-life ([9]; Sirtori et al., 2014): 12 h
